Series [1] has as its system mutant codon 12 KRAS gene and wild-type KRAS gene in LS180. Kind of series: Colony PCR with allele specific primers, LS180. It is filed as cell-based, human. Conditions: for MUT (number of mutant gene colonies) / WT (number of wild-type gene colonies): LS180, 50 nM, 48 hours, colony PCR, Table 3. As for the experimental part:
Using primers that specifically amplify the GAT mutant gene of KRAS codon 12 (KRAS-MUT-F and KRAS-MUT-R) and the wild-type genes thereof (KRAS-WT-F and KRAS-WT-R), PCR was carried out directly on the Escherichia coli cells in the above-described white colonies. Whether each colony was a mutant KRAS gene or a wild-type KRAS gene was determined, depending on by which primer set the band of interest was amplified.
(§1) KR12, which was considered to specifically alkylate the KRAS mutant codon 12 gene, was administered to a heterozygous colon cancer cell line LS180 having both a mutant codon 12 KRAS gene and a wild-type KRAS gene. Forty-eight hours later, RNA was extracted, and the KRAS gene was then quantitatively amplified. The amplified gene was cloned into a plasmid, using a TA cloning kit, and the obtained plasmid was then introduced into competent cells. Thereafter, by performing blue-white selection using an LB/amp/IPTG/X-Gal plate, white colonies having inserts were picked up, and then, the presence or absence of a colon 12 mutation in each colony was examined by direct sequencing or by a colony PCR method.

For series [2] the test system is unchanged. As to the kind of experiment: Colony sequence of KRAS transcripts, LS180. Conditions: for MUT (number of mutant gene colonies) / WT (number of wild-type gene colonies): LS180, 50 nM, 48 hours, colony sequence, Table 2; for number of mutant gene colonies relative to wild-type gene colonies: LS180, colony sequence method. It is filed as cell-based, human. As for the experimental part: The cells (6.5×10^4) were seeded and were then cultured overnight. Thereafter, the cultured cells were treated with 50 nM KR12 or KR13, and were then cultured for 48 hours. After that, the cultured cells were harvested, and RNA was then extracted. For the extraction, RT-PCT was carried out using RNeasy mini kit (Qiagen, CA). Subsequently, using the extracted RNA as a template, cDNA for reverse transcription was prepared by employing Super Script VILO cDNA Synthesis Kit (Invitrogen, CA). Using the prepared cDNA as a template, PCR was carried out using the primers shown in SEQ ID NO: 7 and SEQ ID NO: 8. After a reaction had been carried out at 94° C. for 5 minutes, a reaction cycle of 94° C.-30 seconds, 55° C.-30 seconds, and 72° C.-30 seconds was repeated 20 times. Finally, an elongation reaction was carried out at 72° C. for 7 minutes. The PCR product was cloned using pGEM-T Easy vector (Promega, WI). Thereafter, Escherichia coli DH5α competent cells (Toyobo, Japan) were transformed with the clone, and the obtained transformant was then cultured at 37° C. overnight in an LB plate containing 50 μg/mL ampicillin, 1 mg of X-gal and 1 mg of isopropyl-β-thiogalactopyranoside. White colonies were identified by colony direct PCR. Regarding the PCR reaction cycle, after a reaction had been carried out at 94° C. for 5 minutes, a reaction cycle of 94° C.-30 seconds, 55° C.-30 seconds, and 72° C.-30 seconds was repeated 30 times. Finally, an elongation reaction was carried out at 72° C. for 7 minutes. The following primer set, namely, an M13-F1 primer and an M13-R1 primer were used for amplification. The sequence of the amplified DNA was decoded using a sequencing primer KRAS-2R, and the KRAS gene mutation site in each colony was then identified.
as §1

In another series the test system is HT29 (KRAS-WT). As to the kind of experiment: Suppression of tumor growth in nude mice, HT29 transplanted. It is filed as in vivo. Conditions: nude mice with HT29 cells; 3.4 mmol KR12 via the caudal vein; FIG. 14A. The procedure: The below-mentioned 3 types of PBS solutions containing each type of cells were subcutaneously transplanted into the femurs of nude mice (i.e., HT29 into 7 mice, LS180 into 7 mice, and SW480 into 6 mice), and thereafter, at a time point in which a tumor adhered to the living body of each mouse and the tumor volume became approximately 100 mm^3, a drug was prepared with a composition of 3.4 mmol KR12 (1.36 mM KR12 dissolved in 2.5 μL of DMSO and 197.5 μL of PBS), or of a DMSO/PBS control (2.5 μL of DMSO and 197.5 μL of PBS). The prepared drug was subjected to sonication for 10 minutes, and 200 μL of the drug was administered to each mouse via the caudal vein thereof. The body weight and the tumor size were measured once three days, and the size of the tumor was measured by the method of 0.52×L×W×D(1/6×π×L×W×D).
HT29 (KRAS-WT): (transplanted in an amount of 2×10^6 cells/100 μl PBS into the subcutis of each mouse; a wild-type KRAS codon 12 cell line having no codon 12 mutations)

Series [3] is described as follows: Mass spectrometry of mouse urine and mouse bile for KR12 and decomposed product. It is filed as in vivo. The procedure:
The FITC-labeled KR12 (10 nmol) was administered into the vein of nude mice, into which SW480 cells had been transplanted, and thereafter, their fluorescent image was observed over time. […] Thereafter, twenty-four hours after the administration, the mice were dissected, and incorporation of FITC into various organs was observed. […] Furthermore, localization of KR12 in the cells of tumor, liver, and kidney was observed under a fluorescence microscope. […] The presence of absence of HR12 and a decomposed product thereof in mouse urine and mouse bile was examined by mass spectrometry. […] In the case of tumor cells, lipids are required for the synthesis of a cell membrane or the like, together with cell division, and thus, in general, incorporation of lipids is increased. In addition, excretion via the lymphatics is undeveloped. […] Such accumulation of KR12 in the liver and the kidney is observed even in normal cells. However, since KR12 cannot retain in the cells, it is discharged into bile and/or urine, and is then excreted from these organs. That is, KR12 has excellent effects that it is promptly discharged from normal cells and retains in cancer cells for a long period of time.

As to `CC(=O)Nc1cn(C)c(C(=O)Nc2cc(C(=O)NCCC(=O)Nc3cn(C)c(C(=O)Nc4cn(C)c(C(=O)Nc5cc(C(=O)Nc6cn(C)c(C(=O)NCCCC(=O)Nc7cc(C(=O)Nc8cn(C)c(C(=O)NCCC(=O)Nc9cc(C(=O)Nc%10cc(C(=O)Nc%11ccc%12[nH]c(C(=O)N%13CC(CCl)c%14c%13cc(O)c%13ccccc%14%13)cc%12c%11)n(C)c%10)n(C)c9)n8)n(C)c7)n6)n(C)c5)n4)n3)n(C)c2)n1` (stereo not shown) [KR12], in series [1], the “MUT (number of mutant gene colonies)” value is listed as 11 and the “WT (number of wild-type gene colonies)” value came to 27. Further, the “expression levels of mutant cancer genes” value in series [1] (LS180, colony PCR) is on record as “the expression levels of mutant cancer genes were decreased”. Besides, in series [2], the “MUT (number of mutant gene colonies)” value came to 14, the “WT (number of wild-type gene colonies)” value is given as 29 and the “number of mutant gene colonies relative to wild-type gene colonies” value is listed as “the number of mutant gene colonies was a half of the number of wild-type gene colonies”. The tumor growth result in the series with HT29 (KRAS-WT) was “could not be suppressed”. In addition, the “metabolic degradation of excreted compound” value in series [3] was “discharged in a state in which it was not subjected to metabolic degradation”.
As for `CC(=O)Nc1cn(C)c(C(=O)Nc2cn(C)c(C(=O)Nc3cc(C(=O)Nc4cn(C)c(C(=O)NCCC(=O)Nc5cc(C(=O)Nc6cn(C)c(C(=O)NCCCC(=O)Nc7cc(C(=O)Nc8cn(C)c(C(=O)Nc9cc(C(=O)NCCC(=O)Nc%10cc(C(=O)Nc%11ccc%12[nH]c(C(=O)N%13CC(CCl)c%14c%13cc(O)c%13ccccc%14%13)cc%12c%11)n(C)c%10)n(C)c9)n8)n(C)c7)n6)n(C)c5)n4)n(C)c3)n2)n1` (stereo not shown) [KR13], in series [1], the “MUT (number of mutant gene colonies)” value was determined as 13 and the “WT (number of wild-type gene colonies)” value was 14. In series [2], the “MUT (number of mutant gene colonies)” value is recorded as 22, the “WT (number of wild-type gene colonies)” value was determined as 15 and the “number of mutant gene colonies relative to wild-type gene colonies” value is “the number of mutant genes was rather increased”.

Values taken from patent publication US11185593B2, “Alkylating agent for alkylating target with driver oncogene mutation” (Chiba Prefecture, priority 2013, dated 2021).
